Values joined by “and” are separate entries in the source; they are usually repeats but may differ in a detail not shown here. Equal entries are not always repeated. Structures can show the parent of a compound that is named as a salt. Where two headings read alike, the source gives them in different places.
Biological target: T1, human p38 kinase alpha (Homo sapiens, UniProt Q16539)
T1 construct: The coding region of the human p38α cDNA was obtained by PCR-amplification from RNA isolated from the human monocyte cell line THP.1; made in house; host or cells: E. coli DH10B
Assay: In vitro p38 kinase inhibition analysis (PHAS-I 32P-ATP or EGFRP 33P-ATP format)
Format: biochemical
Details: read-out: p38α Kinase Inhibition (IC50 in μM)
Protocol: The ability of compounds to inhibit human p38 kinase alpha was evaluated using one of two in vitro assay methods. In the first method, activated human p38 kinase alpha phosphorylates a biotinylated substrate, PHAS-I (phosphorylated heat and acid stable protein-insulin inducible), in the presence of gamma ^32P-ATP (^32P-ATP). PHAS-I was biotinylated before the assay, and provided a means of capturing the substrate which was phosphorylated during the assay. p38 Kinase was activated by MKK6. Compounds were tested in 10 fold serial dilutions over the range of 100 μM to 0.001 μM using 1% DMSO. Each concentration of inhibitor was tested in triplicate.
All reactions were carried out in 96 well polypropylene plates. Each reaction well contained 25 mM HEPES pH 7.5, 10 mM magnesium acetate, and 50 μM unlabeled ATP. […] Activated human p38 kinase alpha was used at 1 μg per 50 μl reaction volume, representing a final concentration of 0.3 μM. Gamma ^32P-ATP was used to follow the phosphorylation of PHAS-I. ^32P-ATP has a specific activity of 3000 Ci/mmol, and was used at 1.2 μCi per 50 μl reaction volume. The reaction proceeded either for one hr or overnight at 30° C.
Following incubation, 20 μl of reaction mixture was transferred to a high capacity streptavidin coated filter plate (SAM-streptavidin-matrix, Promega) prewetted with phosphate buffered saline. The transferred reaction mix was allowed to contact the streptavidin membrane of the Promega plate for 1-2 min. […] Filter plates were air dried and 20 μl of scintillant was added. The plates were sealed and counted.
A second assay format was alternatively employed. This assay is based on p38 kinase alpha being induced phosphorylation of EGFRP (epidermal growth factor receptor peptide, a 21 mer) in the presence of ^33P-ATP. Compounds were tested in 10 fold serial dilutions over the range of 100 μM to 0.001 μM in 10% DMSO. Each concentration of inhibitor was tested in triplicate. Compounds were evaluated in 50 μl reaction volumes in the presence of 25 mM HEPES pH 7.5, 10 mM magnesium acetate, 4% glycerol, 0.4% bovine serum albumin, 0.4 mM DTT, 50 μM unlabeled ATP, 25 μg EGFRP (200 μM), and 0.05 uCi gamma ^33P-ATP. Reactions were initiated by addition of 0.09 μg of activated, purified human GST-p38 kinase alpha. Activation was carried out using GST-MKK6 (5:1,p38:MKK6) for one hr at 30° C. in the presence of 50 μM ATP. Following incubation for 60 min at room temperature, the reaction was stopped by addition of 150 μl of AG 1×8 resin in 900 mM sodium formate buffer, pH 3.0 (1 volume resin to 2 volumes buffer). The mixture was mixed three times with pipetting. Afterward, the resin was allowed to settle. A total of 50 μl of clarified solution head volume was transferred from the reaction wells to Microlite-2 plates. 150 μl of Microscint 40 was then added to each well of the Microlite plate, and the plate was sealed, mixed, and counted.

[1] = Table 2, additional pyrazole compounds, Examples 56-169
[2] = Table 1, compounds of Examples 1-28, one of two in vitro assay methods
[3] = Table 1, compounds of Examples 1-28, one of two in vitro assay methods, Hydrochloride Hydrate

T1 sequence (Q16539 whole entry): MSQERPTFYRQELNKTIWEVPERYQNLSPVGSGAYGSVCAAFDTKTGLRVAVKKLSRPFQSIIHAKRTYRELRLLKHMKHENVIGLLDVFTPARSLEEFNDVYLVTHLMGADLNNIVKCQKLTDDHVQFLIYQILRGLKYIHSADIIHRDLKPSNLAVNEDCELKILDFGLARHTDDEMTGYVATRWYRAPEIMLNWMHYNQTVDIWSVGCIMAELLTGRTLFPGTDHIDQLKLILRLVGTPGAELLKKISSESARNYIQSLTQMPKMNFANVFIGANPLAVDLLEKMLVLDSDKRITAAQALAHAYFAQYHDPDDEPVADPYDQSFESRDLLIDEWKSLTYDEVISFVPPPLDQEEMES

Compound: O=C(CO)N1CCC(c2[nH]nc(-c3cc(F)cc(Cl)c3)c2-c2ccncn2)CC1 [Example 104]
- IC50 [1]: 1.1 µM

Compound: CC(C)(C)OC(=O)N1CCC(c2[nH]nc(-c3ccc(Cl)cc3)c2-c2ccnc(Oc3cccc(C#N)c3)n2)CC1 [Example 134]
- IC50 [1]: 1.59 µM

Compound: CN(C)CCOc1nccc(-c2c(-c3ccc(F)c(C(F)(F)F)c3)n[nH]c2C2CCN(C(=O)CO)CC2)n1 [Example 139]
- IC50 [1]: 0.854 µM

Compound: Clc1ccc(-c2n[nH]c(C3CCNCC3)c2-c2ccnc(NC3CCN(Cc4ccccc4)CC3)n2)cc1 [Example 150]
- IC50 [1]: 0.034 µM

Compound: CC(C)(C)OC(=O)N1CCC(c2[nH]nc(-c3ccc(Cl)cc3)c2-c2ccnc(NC3CCCC3)n2)CC1 [Example 140]
- IC50 [1]: 0.01 µM

Compound: O=C(CO)N1CCC(c2[nH]nc(-c3ccc(Cl)c(Cl)c3)c2-c2ccncn2)CC1 [Example 69]
- IC50 [1]: 0.133 µM

Compound: C[C@@H](N[C@H]1CC[C@H](c2[nH]nc(-c3ccc(Cl)cc3)c2-c2ccncn2)CC1)c1ccc(F)cc1 [Example 5, 4-[3-(4-chlorophenyl)-4-pyrimidin-4-yl-1H-pyrazol-5-yl]-N-[(1R)-1-(4-fluorophenyl)ethyl]-trans-cyclohexanamine]
- IC50 [2]: 0.0232 µM

Compound: O=C(CO)N1CCC(c2[nH]nc(-c3ccc(Cl)cc3F)c2-c2ccncn2)CC1 [Example 27, 2-{4-[3-(4-chloro-2-fluorophenyl)-4-pyrimidin-4-yl-1H-pyrazol-5-yl]piperidin-1-yl}-2-oxoethanol]
- IC50 [2]: 0.209 µM

Compound: CN(C)CCNc1nccc(-c2c(-c3ccc(Cl)cc3)n[nH]c2C2CCNCC2)n1 [Example 144]
- IC50 [1]: 0.159 µM

Compound: CN1CCC(c2[nH]nc(-c3ccc(Cl)cc3F)c2-c2ccnc(NC3CCCC3)n2)CC1 [Example 153]
- IC50 [1]: 0.0182 µM

Compound: C[C@H](O)C(=O)N1CCC(c2[nH]nc(-c3ccc(Cl)cc3F)c2-c2ccncn2)CC1 [Example 107]
- IC50 [1]: 0.0777 µM

Compound: C[C@H](O)C(=O)N1CCC(c2[nH]nc(-c3cc(F)cc(Cl)c3)c2-c2ccncn2)CC1 [Example 108]
- IC50 [1]: 1.62 µM

Compound: O=C(COP(=O)(O)O)N1CCC(c2[nH]nc(-c3ccc(Cl)cc3)c2-c2ccncn2)CC1 [Example 24, di-sodium 2-{4-[3-(4-chlorophenyl)-4-pyrimidin-4-yl-1H-pyrazol-5-yl]piperidin-1-yl}-2-oxoethyl Dihydrogen Phosphate Dihydrate]
- IC50 (Table 1, compounds of Examples 1-28, one of two in vitro assay methods, Phosphate Dihydrate): 0.0608 µM

Compound: CN(C)CC(=O)OCC(=O)N1CCC(c2[nH]nc(-c3ccc(Cl)cc3)c2-c2ccncn2)CC1 [Example 130]
- IC50 [1]: 0.0438 µM

Compound: CC(C)C(N)C(=O)OCC(=O)N1CCC(c2[nH]nc(-c3ccc(Cl)cc3)c2-c2ccncn2)CC1 (centres unmarked) [Example 57]
- IC50 [1]: 0.0285 µM

Compound: C[C@H](O)C(=O)N1CCC(c2[nH]nc(-c3cccc(C(F)(F)F)c3F)c2-c2ccncn2)CC1 [Example 112]
- IC50 [1]: 5.18 µM

Compound: Cc1ccc(-c2n[nH]c(C3CCN(C(=O)CO)CC3)c2-c2ccncn2)cc1Cl [Example 71]
- IC50 [1]: 0.444 µM

Compound: C[C@H](O)[C@@H](O)C(=O)N1CCC(c2[nH]nc(-c3ccc(Cl)cc3)c2-c2ccncn2)CC1 [Example 64]
- IC50 [1]: 0.596 µM

Compound: O=C(CO)N1CCC(c2[nH]nc(-c3cc(C(F)(F)F)ccc3F)c2-c2ccncn2)CC1 [Example 102]
- IC50 [1]: 0.454 µM

Compound: O=C([C@H](O)CO)N1CCC(c2[nH]nc(-c3ccc(Cl)cc3)c2-c2ccncn2)CC1 [Example 63]
- IC50 [1]: 0.416 µM

Compound: CN(C)CCOc1nccc(-c2c(-c3ccc(Cl)cc3F)n[nH]c2C2CCN(C(=O)CO)CC2)n1 [Example 157]
- IC50 [1]: 1.07 µM and 0.847 µM

Compound: CN(C)CCOc1nccc(-c2c(-c3cccc(Cl)c3)n[nH]c2C2CCN(C(=O)CO)CC2)n1 [Example 116]
- IC50 [1]: 0.727 µM

Compound: O=C(CO)N1CCC(c2[nH]nc(-c3cc(F)cc(C(F)(F)F)c3)c2-c2ccncn2)CC1 [Example 101]
- IC50 [1]: 2.71 µM

Compound: CN(C)CCNc1nccc(-c2c(-c3ccc(Cl)cc3F)n[nH]c2C2CCN(C(=O)CO)CC2)n1 [Example 162]
- IC50 [1]: 0.474 µM

Compound: O=C(CO)N1CCC(c2[nH]nc(-c3cc(F)ccc3F)c2-c2ccncn2)CC1 [Example 87]
- IC50 [1]: 1.75 µM

Compound: C[C@@H](N[C@H]1CC[C@H](c2[nH]nc(-c3ccc(Cl)cc3)c2-c2ccncn2)CC1)c1ccccc1 [Example 2, 4-[3-(4-chlorophenyl)-4-pyrimidin-4-yl-1H-pyrazol-5-yl]-N-[(1R)-1-phenylethyl]-trans-cyclohexanamine 4-methylbenzenesulfonate]
- IC50 (Table 1, compounds of Examples 1-28, one of two in vitro assay methods, 4-methylbenzenesulfonate): 0.0279 µM

Compound: OC[C@H]1CCCN1[C@H]1CC[C@H](c2[nH]nc(-c3ccc(Cl)cc3)c2-c2ccncn2)CC1 [Example 10, ((2R)-1-{4-[3-(4-chlorophenyl)-4-pyrimidin-4-yl-1H-pyrazol-5yl]cyclohexyl}pyrrolidin-2-yl)methanol Hydrochloride Hydrate]
- IC50 [3]: 0.0354 µM

Compound: O=C(CO)N1CCC(c2[nH]nc(-c3ccc(Cl)cc3)c2-c2ccnc(O)n2)CC1 [Example 59]
- IC50 [1]: 15.8 µM

Compound: CN(C)CCOc1nccc(-c2c(-c3ccc(F)c(C(F)(F)F)c3)n[nH]c2C2CCNCC2)n1 [Example 155]
- IC50 [1]: 0.527 µM

Compound: O=C(CO)N1CCC(c2[nH]nc(-c3cccc(C(F)(F)F)c3F)c2-c2ccncn2)CC1 [Example 103]
- IC50 [1]: 5.46 µM

Compound: COc1ccc(-c2n[nH]c(C3CCN(C(=O)CO)CC3)c2-c2ccncn2)cc1Cl [Example 73]
- IC50 [1]: 1.2 µM

Compound: CC(c1ccc(C(C)(C)O)cc1)N1CCC(c2[nH]nc(-c3ccc(Cl)cc3)c2-c2ccncn2)CC1 (centres unmarked) [Example 18, 2-[4-(1-{4-[3-(4-chlorophenyl)-4-pyrimidin-4-yl-1H-pyrazol-5-yl]piperidin-1-yl}ethyl)phenyl]propan-2-ol]
- IC50 [2]: 0.0106 µM

Compound: CN(C)CC(=O)OCC(=O)N1CCC(c2[nH]nc(-c3ccc(Cl)cc3)c2-c2ccncn2)CC1 [Example 25, 2-{4-[3-(4-chlorophenyl)-4-pyrimidin-4-yl-1H-pyrazol-5-yl]piperidin-1-yl}-2-oxoethyl N,N-dimethylglycinate Hydrochloride]
- IC50 [2]: 0.0118 µM

Compound: CN(C)CCOc1nccc(-c2c(-c3ccc(Cl)cc3F)n[nH]c2C2CCN(C(=O)CO)CC2)n1 [Example 158]
- IC50 [1]: 1.3 µM and 0.647 µM

Compound: O=C(CO)N1CCC(c2[nH]nc(-c3ccc(F)c(F)c3)c2-c2ccncn2)CC1 [Example 60]
- IC50 [1]: 0.753 µM

Compound: CN1CCC(c2[nH]nc(-c3ccc(F)c(C(F)(F)F)c3)c2-c2ccnc(NC3CCCC3)n2)CC1 [Example 167]
- IC50 [1]: 0.0063 µM

Compound: Clc1ccc(-c2n[nH]c([C@H]3CC[C@H](N4CCCCC4)CC3)c2-c2ccncn2)cc1 [Example 8, 4-[3-(4-chlorophenyl)-5-(4-piperidin-1-ylcyclohexyl)-1H-pyrazol-4-yl]pyrimidine Hydrochloride Hydrate]
- IC50 [3]: 0.0582 µM

Compound: C[C@H](O)C(=O)N1CCC(c2[nH]nc(-c3cc(F)cc(C(F)(F)F)c3)c2-c2ccncn2)CC1 [Example 115]
- IC50 [1]: 8.48 µM

Compound: CN(C)CCNc1nccc(-c2c(-c3ccc(F)c(C(F)(F)F)c3)n[nH]c2C2CCN(C)CC2)n1 [Example 166]
- IC50 [1]: 1.1 µM

Compound: CN(C)CCOc1nccc(-c2c(-c3ccc(Cl)cc3)n[nH]c2C2CCN(C(=O)CO)CC2)n1 [Example 97]
- IC50 [1]: 0.377 µM

Compound: COc1ccc(-c2n[nH]c(C3CCN(C(=O)CO)CC3)c2-c2ccncn2)cc1 [Example 84]
- IC50 [1]: 1.5 µM

Compound: O=C(CO)N1CCC(c2[nH]nc(-c3cccc(Cl)c3F)c2-c2ccncn2)CC1 [Example 106]
- IC50 [1]: 0.297 µM

Compound: O=C(COP(=O)(O)O)N1CCC(c2[nH]nc(-c3ccc(Cl)cc3)c2-c2ccncn2)CC1 [Example 22, 2-{4-[3-(4-chlorophenyl)-4-pyrimidin-4-yl-1H-pyrazol-5-yl]piperidin-1-yl}-2-oxoethyl Dihydrogen Phosphate]
- IC50 [2]: 0.00607 µM

Compound: Fc1cc(Cl)ccc1-c1n[nH]c(C2CCNCC2)c1-c1ccncn1 [Example 26, 4-[3-(4-chloro-2-fluorophenyl)-5-piperidin-4-yl-1H-pyrazol-4-yl]pyrimidine]
- IC50 [2]: 0.0641 µM

From patent publication US20040082551A1, “Novel pyrazoles and their use as p38 kinase inhibitors” (priority 2002, published 2004)
